Results published in publication PMC12305662, “Fragment-Based Development of Small Molecule Inhibitors Targeting Mycobacterium tuberculosis Cholesterol Metabolism” (Journal of Medicinal Chemistry, 2025).

Key:
CYP143 = CYP143 (Mycobacterium tuberculosis, UniProt P9WPL3); conditions: fragment 1 mM, P450 4-6 µM; relative to DMSO (416 nm)
CYP124 = CYP124 (Mycobacterium tuberculosis, UniProt P9WPP3); conditions: fragment 1 mM, P450 4-6 µM; relative to DMSO (419 nm)
CYP121 = CYP121 (Mycobacterium tuberculosis, UniProt P9WPP7); conditions: fragment 1 mM, P450 4-6 µM; relative to DMSO (417 nm)
CYP121, sequence (P9WPP7 whole entry, the tested form may be a part): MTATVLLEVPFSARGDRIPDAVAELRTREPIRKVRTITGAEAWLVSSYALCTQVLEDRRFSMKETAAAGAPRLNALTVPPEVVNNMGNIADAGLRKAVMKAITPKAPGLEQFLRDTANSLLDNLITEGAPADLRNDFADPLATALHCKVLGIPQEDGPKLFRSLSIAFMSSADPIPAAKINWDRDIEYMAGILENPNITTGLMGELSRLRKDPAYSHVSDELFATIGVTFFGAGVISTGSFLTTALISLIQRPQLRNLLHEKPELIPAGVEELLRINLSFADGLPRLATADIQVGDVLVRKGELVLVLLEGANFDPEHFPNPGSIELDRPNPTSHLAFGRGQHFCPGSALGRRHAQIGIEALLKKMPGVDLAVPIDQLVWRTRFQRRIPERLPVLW

CYP125 = CYP125 (Mycobacterium tuberculosis, UniProt P9WPP1); assay type: binding; conditions: fragment 1 mM, P450 4-6 µM; Soret shift relative to DMSO (393 nm)
CYP125, sequence (P9WPP1 whole entry, the tested form may be a part): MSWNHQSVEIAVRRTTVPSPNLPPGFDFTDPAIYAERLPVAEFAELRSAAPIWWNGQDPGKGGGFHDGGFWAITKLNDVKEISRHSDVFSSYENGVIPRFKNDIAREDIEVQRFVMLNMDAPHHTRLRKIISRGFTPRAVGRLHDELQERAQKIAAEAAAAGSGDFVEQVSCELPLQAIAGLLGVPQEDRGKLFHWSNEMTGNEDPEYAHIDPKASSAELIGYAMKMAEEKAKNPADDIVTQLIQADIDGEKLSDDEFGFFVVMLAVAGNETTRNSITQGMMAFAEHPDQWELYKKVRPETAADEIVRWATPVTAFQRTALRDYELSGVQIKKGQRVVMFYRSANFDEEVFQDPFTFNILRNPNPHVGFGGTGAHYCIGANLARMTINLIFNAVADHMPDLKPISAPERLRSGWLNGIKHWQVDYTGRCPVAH

CYP144 = CYP144 (Mycobacterium tuberculosis, UniProt P9WPL1); conditions: fragment 1 mM, P450 4-6 µM; relative to DMSO (421 nm)
CYP144, sequence (P9WPL1 whole entry, the tested form may be a part): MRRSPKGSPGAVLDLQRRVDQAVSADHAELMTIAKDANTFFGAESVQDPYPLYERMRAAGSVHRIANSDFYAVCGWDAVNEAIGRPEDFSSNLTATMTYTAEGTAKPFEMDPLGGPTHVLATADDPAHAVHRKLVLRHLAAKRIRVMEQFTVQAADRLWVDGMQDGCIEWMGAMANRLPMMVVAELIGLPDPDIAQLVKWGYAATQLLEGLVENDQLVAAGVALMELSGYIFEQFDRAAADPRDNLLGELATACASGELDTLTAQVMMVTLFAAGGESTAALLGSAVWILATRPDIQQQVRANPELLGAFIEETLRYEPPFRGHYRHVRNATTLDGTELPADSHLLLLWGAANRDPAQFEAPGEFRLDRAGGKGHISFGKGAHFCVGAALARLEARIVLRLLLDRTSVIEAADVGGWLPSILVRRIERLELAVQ

CYP126 = CYP126 (Mycobacterium tuberculosis, UniProt P9WPN9); conditions: fragment 1 mM, P450 4-6 µM; relative to DMSO (418 nm)
CYP126, sequence (P9WPN9 whole entry, the tested form may be a part): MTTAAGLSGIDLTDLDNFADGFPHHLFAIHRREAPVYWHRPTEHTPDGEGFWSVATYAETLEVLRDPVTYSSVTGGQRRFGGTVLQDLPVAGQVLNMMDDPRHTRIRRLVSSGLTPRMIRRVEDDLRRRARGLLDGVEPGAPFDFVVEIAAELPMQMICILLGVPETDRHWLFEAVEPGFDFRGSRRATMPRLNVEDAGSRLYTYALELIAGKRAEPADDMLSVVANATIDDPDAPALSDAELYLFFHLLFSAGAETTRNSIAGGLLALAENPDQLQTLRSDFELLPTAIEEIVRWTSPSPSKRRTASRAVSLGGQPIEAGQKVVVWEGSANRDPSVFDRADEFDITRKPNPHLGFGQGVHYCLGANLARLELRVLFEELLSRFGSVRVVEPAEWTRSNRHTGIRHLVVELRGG

CYP142 = CYP142 (Mycobacterium tuberculosis, UniProt P9WPL5); conditions: fragment 1 mM, P450 4-6 µM; relative to DMSO (418.5 nm)
CYP142, sequence (P9WPL5 whole entry, the tested form may be a part): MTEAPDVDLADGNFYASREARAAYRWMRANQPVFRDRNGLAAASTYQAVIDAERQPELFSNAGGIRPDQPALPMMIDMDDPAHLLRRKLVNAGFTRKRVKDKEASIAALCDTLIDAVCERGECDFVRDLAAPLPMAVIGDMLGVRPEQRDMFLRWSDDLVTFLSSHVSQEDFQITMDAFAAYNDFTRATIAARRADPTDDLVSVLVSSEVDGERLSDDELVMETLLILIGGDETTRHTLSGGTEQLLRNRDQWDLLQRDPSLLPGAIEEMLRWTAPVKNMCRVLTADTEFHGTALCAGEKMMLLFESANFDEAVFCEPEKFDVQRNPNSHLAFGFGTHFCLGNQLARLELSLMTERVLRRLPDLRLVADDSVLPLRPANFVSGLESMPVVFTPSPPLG

CYP143, sequence (P9WPL3 whole entry, the tested form may be a part): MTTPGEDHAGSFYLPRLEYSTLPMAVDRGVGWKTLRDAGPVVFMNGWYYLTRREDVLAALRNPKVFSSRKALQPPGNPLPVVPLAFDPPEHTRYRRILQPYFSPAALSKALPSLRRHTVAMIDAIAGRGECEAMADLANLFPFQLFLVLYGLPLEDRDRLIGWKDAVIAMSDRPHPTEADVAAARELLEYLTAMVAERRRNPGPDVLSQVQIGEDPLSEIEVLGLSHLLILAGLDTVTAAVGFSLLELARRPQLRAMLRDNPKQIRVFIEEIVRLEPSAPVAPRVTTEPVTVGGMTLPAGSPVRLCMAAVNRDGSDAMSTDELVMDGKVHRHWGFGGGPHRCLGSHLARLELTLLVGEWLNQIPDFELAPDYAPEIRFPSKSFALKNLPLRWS
CYP124, sequence (P9WPP3 whole entry, the tested form may be a part): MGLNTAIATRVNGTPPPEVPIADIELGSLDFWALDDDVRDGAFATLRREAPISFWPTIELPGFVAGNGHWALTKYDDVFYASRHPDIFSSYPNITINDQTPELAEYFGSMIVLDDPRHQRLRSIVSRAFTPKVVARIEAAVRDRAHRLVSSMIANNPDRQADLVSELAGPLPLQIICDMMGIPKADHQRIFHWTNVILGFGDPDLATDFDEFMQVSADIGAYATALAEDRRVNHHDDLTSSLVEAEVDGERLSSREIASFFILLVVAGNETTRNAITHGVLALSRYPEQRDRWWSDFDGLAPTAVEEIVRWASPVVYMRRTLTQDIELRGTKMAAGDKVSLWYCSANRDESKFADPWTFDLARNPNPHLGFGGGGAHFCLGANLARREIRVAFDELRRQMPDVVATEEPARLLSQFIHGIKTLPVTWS

Row | SMILES | Δλmax (nm) CYP143, fragment screen (CYP143) [nm] | Δλmax (nm) CYP124, fragment screen (CYP124) [nm] | Δλmax (nm) CYP121, fragment screen (CYP121) [nm] | Δλmax (nm) CYP125, fragment screen (CYP125) [nm] | Δλmax (nm) CYP144, fragment screen (CYP144) [nm] | Δλmax (nm) CYP126, fragment screen (CYP126) [nm] | Δλmax (nm) CYP142, fragment screen (CYP142) [nm]
1 | O=C(O)c1ccnnc1 [compound 1] | 0.5 | 0 | -1 | 0 | 0 | 0 | 0
2 | c1ccc(-c2ccn[nH]2)nc1 [compound 2] | 0 | 0 | 0 | 0 | 0 | 0 | 0
3 | c1ccc(-c2ncc[nH]2)cc1 [compound 4] | 0 | 0 | 0 | 0 | 0 | 0 | 0
4 | Nc1cccc(Cn2cncn2)c1 [compound 5] | 1 | 1 | 2 | 0 | 0 | 0 | 1.5
5 | Cc1cc(N)n(-c2ccccc2)n1 [compound 6] | 0.5 | 0 | 0 | 0 | 0 | 0 | 0
6 | Cc1ccc(=O)[nH]n1 [compound 7] | 0 | 0 | 0 | 0 | 0 | 0 | 0
7 | OCc1ccc(-c2ccncc2)cc1 [compound 8] | 1 | 1 | 1 | 25 | 0 | 3 | 0
8 | OCc1nccn1Cc1ccccc1 [compound 10] | 1 | 1 | 0 | 0 | 0 | 0 | 3
9 | Cn1nc(-c2ccccc2)cc1N [compound 11] | -0.5 | 0 | 0 | 0 | 0 | 0 | 0
10 | Nc1cc(-c2ccc(Cl)cc2)n[nH]1 [compound 12] | 0 | -1 | 2 | -2 | 0 | 1 | 0
11 | NC1=NN(c2ccccc2)C(=O)C1 [compound 13] | 0 | -1 | 0 | 0 | 0 | 0 | 0
12 | Cc1[nH]ncc1-c1ccccc1 [compound 14] | 0 | 3 | 0 | -2 | 0 | 0 | 1.5
13 | Cc1cc(C)n(-c2ccc(N)cc2)n1 [compound 16] | 0.5 | 0 | -1 | 0 | 0 | 0 | 0
14 | Cc1nn(-c2ccccc2)nc1C(=O)O [compound 18] | 0 | 0 | 0 | 0 | 0 | 0 | 0
15 | Clc1cncc(Cl)c1 [compound 19] | 0 | 0 | 0 | 0 | 0 | 0 | 0
16 | c1ccc(Cc2cccnc2)cc1 [compound 20] | 2 | 1 | 2 | 28 | 0 | 1 | 3
17 | Clc1nccc2ccc(Br)cc12 [compound 37] |  | 0 | -3 | 0 | 0 | 0 | 0
18 | Nc1cccnc1O [compound 45] | 0 | 0 |  | 0 | 0 | 0 | 0
19 | O=[N+]([O-])c1ccc(Br)c2ccncc12 [compound 59] |  | 1 |  | 0 | 0 | 0 | 0
20 | Clc1cccnc1Cl [compound 61] | 0 | 0 | 0 |  | 0 | 0 | 0
21 | Nn1cccc1C(=O)O [compound 62] | 4 | 0 |  |  | 0 | 0 | 0
22 | COc1ncccc1C(=O)O [compound 65] | 1 | 0 | 0 |  | 0 | 0 | 0
23 | Nc1cccnc1N [compound 66] | 0 | 0 |  |  | 0 | 0 | 0
